# In patent US5210027A, “DNA encoding novel antimicrobial polypeptide and methods for obtaining such polypeptide” (INCYTE Pharmaceuticals, Inc., priority 1991, dated 1993):
# Legend:
# Assay type in all cases: cell-based
# [1] = system: Escherichia coli K12 (MC4100); experiment: Microbicidal assay (colony forming units) against Escherichia coli
# Procedure: (§1) Microbicidal activity was routinely tested against Escherichia coli K12 (MC4100), Streptococcus faecalis (ATCC Accession No. 29212) and Candida albicans (clinical isolate). Organisms from a single colony on agar plates were inoculated into liquid medium and cultured overnight at 37° C. Aliquots of the overnight culture were inoculated into fresh nutrient broth and grown to mid-exponential phase. Cultures were then diluted into the test medium to the appropriate concentration.
# (§2) Samples from reverse-phase liquid chromatography to be tested for microbicidal activity were dried by vacuum centrifugation in Immulon I microtire plates in the presence of 50 μl 0.1% BSA. Dried samples were resuspended in 0.1% acetic acid and returned to dryness by vacuum centrifugation. Samples were then resuspended in assay buffer and after appropriate dilutions of samples had been made, test organisms were added to the wells and incubation at 37° C. was carried out for 30 to 60 minutes. Killing of all organisms was carried out in 20 mM phosphate pH 6, 0.25M glucose and 0.02% Tween 20 unless otherwise indicated. A volume of the assay mixture corresponding to 200-300 organisms in the control assays were plated onto trypticase soy agar plates (Escherichia coli and Streptococcus faecalis) or spread onto Sabouraud dextrose agar plates (Candida albicans). Colony forming units were determined manually or by automated counting after overnight incubation at 37° C.
# [2] = system: Streptococcus faecalis (ATCC Accession No. 29212); experiment: Microbicidal assay (colony forming units) against Streptococcus faecalis
# Procedure: as §1, §2
# [3] = system: Candida albicans (clinical isolate); experiment: Microbicidal assay (colony forming units) against Candida albicans; settings: in vitro
# Procedure: as §1
# as §2, with “A volume of the assay mixture corresponding to 200-300 organisms in the control assays were plated onto trypticase soy agar plates (Escherichia coli and Streptococcus faecalis) or spread onto Sabouraud dextrose agar plates (Candida albicans).” left out
# [4] = in vitro, 20 mM phosphate pH 6, 0.25M glucose, 0.02% Tween 20, 37° C., 30 to 60 minutes, relative to Peak 1 (defensins)
substance,measurement,setting,value
val-cys-ser-cys-arg-leu-val-phe-cys-arg-arg-thr-glu-leu-arg-val-gly-asn-cys-leu-ile-gly-gly-val-ser-phe-thr-tyr-cys-cys-thr-arg-val [Peak 2],effect of detergents Tween 20 and NP40 on microbicidal activity,"[1]; against bacteria, FIG. 7",enhanced
same,microbicidal activity compared with a mixture of previously described defensins,[1]; in vitro,significantly more active
same,"microbicidal activity, fold more active than Peak 1",[1]; [4],15-30 fold
same,effect of detergents Tween 20 and NP40 on microbicidal activity,"[2]; against bacteria, FIG. 7",enhanced
same,microbicidal activity compared with a mixture of previously described defensins,[2]; in vitro,significantly more active
same,"concentration required to reach the indicated levels of killing (50% or 90%), fold less than for Peak 1",[2]; [4],about 100 fold
same,microbicidal activity compared with a mixture of previously described defensins,[3],significantly more active
same,"microbicidal activity, fold more active than Peak 1","[3]; 20 mM phosphate pH 6, 0.25M glucose, 0.02% Tween 20, 37° C., 30 to 60 minutes, relative to Peak 1 (defensins)",about 5 fold
